The record followed here is patent US12686676B2, “Compound, endothelin-A receptor antagonist, and pharmaceutical composition” (Alchemedicine, Inc., priority 2021, dated 2026).

SMILES strings stand for the structures.

For assay [1], the target named is T1, CYP2C9 (Homo sapiens, UniProt P11712).
T1 construct: A frozen liver microsome fraction was thawed on ice; from tissue; host or cells: liver microsome fraction
Put plainly: CYP2C9 inhibitory effect (liver microsome fraction, diclofenac substrate). The assay is classed as in vitro ADME. As to conditions: liver microsome fraction 0.5 mg/mL, diclofenac 2.5 μM. The method, then: The inhibitory effect on CYP2C9 was evaluated by the following method. • (1) A frozen liver microsome fraction was thawed on ice and diluted with a potassium phosphate buffer (PPB) to a final concentration of 0.5 mg/mL. • (2) A substrate for evaluation (diclofenac: D6899 from Sigma-Aldrich Co. LLC) was added thereto such that its final concentration was 2.5 μM. • (3) The mixture was slowly mixed and incubated at 37±1° C. for 5 minutes to prepare a reaction solution. • (4) 801 μL of the reaction solution was dispensed to each tube, and an evaluation compound serially diluted with 0.9 μL of DMSO was added thereto such that its final concentration was 9.1 to 20000 nM (⅓ dilutions with 8 concentrations). In this context, 0.9 μL of DMSO was added to a negative control group, and 0.9 μL of sulfaphenazole (S0758 from Sigma-Aldrich Co. LLC) adjusted to a final concentration of 1 μM with DMSO was added to a positive control group. • (5) After mixing, a 270 μL aliquot was transferred to each of two fresh tubes and incubated in a shaking water bath at 37±1° C. for 5 minutes. • (6) Reaction was started by the addition of 30 μL of 10 mM NADPH, and the tubes were incubated at 37° C.±1° C. for 10 minutes. • (7) The tubes were taken out of the shaking water bath, and the reaction was terminated by the addition of 300 μL of a reaction stop solution. After mixing, the tubes were centrifuged at 1021×g at 4° C. for 20 minutes. • (8) The amount of the substrate for evaluation metabolized was determined by LC-MS/MS to calculate the rate of inhibition at each concentration of the evaluation compound. • (9) IC50 values were calculated using GraphPad Prism5. A sample having an IC50 value of 1 μM or lower was given “++”; a sample having an IC50 value in the range of higher than 1 μM and 10 μM or lower was given “+”; and a sample having an IC50 value of higher than 10 μM was given “−”.

Assay [2] concerns the target T2, human endothelin A receptor (Homo sapiens, UniProt P25101).
T2 construct: expressed in transfected cells; host or cells: CHO-K1-mt aequorin cells
T2 sequence (P25101 21-427): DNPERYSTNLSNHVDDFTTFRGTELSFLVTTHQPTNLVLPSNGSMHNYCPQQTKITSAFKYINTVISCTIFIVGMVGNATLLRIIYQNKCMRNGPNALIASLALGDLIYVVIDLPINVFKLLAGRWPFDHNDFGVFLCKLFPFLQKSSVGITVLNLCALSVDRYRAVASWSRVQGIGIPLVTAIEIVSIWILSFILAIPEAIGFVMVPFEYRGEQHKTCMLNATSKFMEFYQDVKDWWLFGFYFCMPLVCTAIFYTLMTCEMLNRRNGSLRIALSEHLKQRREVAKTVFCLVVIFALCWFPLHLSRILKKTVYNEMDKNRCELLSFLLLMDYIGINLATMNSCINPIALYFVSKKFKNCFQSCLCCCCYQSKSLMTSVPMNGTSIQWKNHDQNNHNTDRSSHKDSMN
The experiment in a line: Endothelin A receptor inhibitory effect (aequorin light emission, endothelin at EC80). Particulars: for IC50: CHO-K1-mt aequorin cells expressing human endothelin A receptor, endothelin at EC80, read-out: ETA receptor inhibitory effect; for ETA selectivity (ETB/ETA): ETB IC50 value/ETA IC50 value. The assay is classed as cell-based. Here is the method: The inhibitory effect on an endothelin A receptor was studied by the following method.
CHO-K1-mt aequorin cells forced to express a human endothelin A receptor (Accession Number NP_001948.1) were cultured in an antibiotic-free medium for 18 hours, then treated with PBS-EDTA (5 mM EDTA), centrifuged (2 min, 405×g, room temperature), and then suspended in an assay buffer (DMEM/HAM's F12 with HEPES+0.1% BSA protease free).
1×10^6 cells/mL of the cells were incubated at room temperature for 4 hours in the presence of coelenterazine h (Molecular Probes, Inc.) (final concentration: 5 µM). Agonistic reaction based on endothelin was confirmed to determine an endothelin concentration corresponding to EC80.
Subsequently, 50 µL (10000 cells/well) of the cell suspension treated with coelenterazine h and 50 µL of an assay buffer containing a test substance (final concentration: 0.5% in DMSO) were added to each well of a 96-well plate. 15 minutes later, endothelin was added such that its final concentration was an EC80 concentration. Receptor activity was measured as the quantity of light emission in FDSS6000 (Hamamatsu Photonics K.K.). IC50 values were calculated using XLfit (ID Business Solutions Ltd. (IDBS)).

In assay [3] the test system is BigET-1-induced blood pressure. The experiment in a line: BigET-1-induced blood pressure evaluation test. The assay is classed as in vivo, Wistar rat. As to conditions: 30 mg/kg into the duodenum 1 hour before BigET-1 (20 μg/kg); Mean ± SD, N = 6. Here is the method: Each 8- to 20-week-old male Wistar rat was subjected to tracheal catheter treatment for airway management, carotid catheter treatment for blood pressure measurement, femoral venous catheter treatment for BigET-1 administration, and duodenal catheter treatment for test substance administration under analgetic treatment and urethane anesthesia. After confirmation that the blood pressure and the heart rate became stable, a vehicle (0.5% methylcellulose 400 solution) or 30 mg/kg (5 ml/kg) of a test substance adjusted with a vehicle was administered into the duodenum. One hour thereafter, BigET-1 (20 μg/kg) was administered thereto, and the blood pressure was monitored until 60 minutes after BigET-1 administration. The test was conducted at n=6 per group. In analysis, systolic blood pressure and diastolic blood pressure were determined for 20 seconds every 5 minutes from 5 minutes before BigET-1 administration to 60 minutes after BigET-1 administration, and AUC0-60 min (mmHg*min) for 60 minutes after BigET-1 administration was calculated using a delta value from the value obtained 5 minutes before BigET-1 administration. The Student's t test was used for the comparison of AUC between the vehicle administration group and the test substance administration group.

T1 sequence (P11712 whole entry): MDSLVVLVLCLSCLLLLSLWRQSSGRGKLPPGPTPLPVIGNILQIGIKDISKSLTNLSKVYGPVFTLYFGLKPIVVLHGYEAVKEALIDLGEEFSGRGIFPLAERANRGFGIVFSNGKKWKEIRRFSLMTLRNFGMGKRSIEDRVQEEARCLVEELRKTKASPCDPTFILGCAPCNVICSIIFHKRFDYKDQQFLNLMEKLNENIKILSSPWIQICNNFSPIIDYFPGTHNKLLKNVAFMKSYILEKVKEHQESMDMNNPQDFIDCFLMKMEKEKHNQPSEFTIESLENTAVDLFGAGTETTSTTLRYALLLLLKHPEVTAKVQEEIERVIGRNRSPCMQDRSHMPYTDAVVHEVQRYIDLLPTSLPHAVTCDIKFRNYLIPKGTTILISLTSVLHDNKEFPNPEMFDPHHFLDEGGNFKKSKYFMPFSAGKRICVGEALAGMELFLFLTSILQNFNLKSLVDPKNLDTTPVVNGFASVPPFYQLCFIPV

With `Cc1cc2c(cc1C#Cc1ncccc1S(=O)(=O)Nc1noc(C)c1C)C(=O)OC2` [Example 4, N-(4,5-Dimethylisoxazol-3-yl)-2-((6-methyl-3-oxo-1,3-dihydroisobenzofuran-5-yl)ethynyl)pyridine-3-sulfonamide], the IC50 in assay [1] was above 10 µM; in assay [2] it was at most 0.001 µM. The “ETA selectivity (ETB/ETA)” value in assay [2] is “++ (ETB IC50 value/ETA IC50 value of higher than 5000)”.
Regarding `Cc1cc2c(cc1C#Cc1ncccc1S(=O)(=O)Nc1onc(C)c1C)C(C)(C)OC2` [Example 8, N-(3,4-Dimethylisoxazol-5-yl)-2-((3,3,6-trimethyl-1,3-dihydroisobenzofuran-5-yl)ethynyl)pyridine-3-sulfonamide], the IC50 is above 10 µM in assay [1] and at most 0.001 µM in assay [2]. In addition, in assay [2], the “ETA selectivity (ETB/ETA)” value is “++ (ETB IC50 value/ETA IC50 value of higher than 5000)”.
Consider `Cc1onc(NS(=O)(=O)c2cccnc2C#Cc2cc3c(cc2Cl)COC3)c1C` [Example 6, 2-((6-Chloro-1,3-dihydroisobenzofuran-5-yl)ethynyl)-N-(4,5-dimethylisoxazol-3-yl)pyridine-3-sulfonamide], for which the IC50 in assay [1] fell in the range of 1 to 10 µM; in assay [2], 0.001 to 0.01 µM.
Regarding `Cc1cc2c(cc1C#Cc1ncccc1S(=O)(=O)Nc1onc(C)c1Cl)C(C)(C)OC2` [Example 9, N-(4-Chloro-3-methylisoxazol-5-yl)-2-((3,3,6-trimethyl-1,3-dihydroisobenzofuran-5-yl)ethynyl)pyridine-3-sulfonamide], the results for the IC50 in assay [1] and in assay [2] were 1 to 10 µM and at most 0.001 µM, respectively. Besides, the “ETA selectivity (ETB/ETA)” value in assay [2] was “++ (ETB IC50 value/ETA IC50 value of higher than 5000)”.
For the molecule `Cc1onc(NS(=O)(=O)c2cccnc2C#Cc2ccc3c(c2)COC3)c1C` [Example 5, 2-((1,3-Dihydroisobenzofuran-5-yl)ethynyl)-N-(4,5-dimethylisoxazol-3-yl)pyridine-3-sulfonamide], the IC50 in assay [1] is above 10 µM; in assay [2], 0.001 to 0.01 µM.
On to `Cc1cc2c(cc1C#Cc1ncccc1S(=O)(=O)Nc1noc(C)c1C)COC2` [Example 3, N-(4,5-Dimethylisoxazol-3-yl)-2-((6-methyl-1,3-dihydroisobenzofuran-5-yl)ethynyl)pyridine-3-sulfonamide], for which, in assay [3], the “Diastolic blood pressure delta AUC0-60 min” value is reported as 322 ± 435 mmHg*min and the “Systolic blood pressure delta AUC0-60 min” value came to 113 ± 565 mmHg*min. For the same molecule, the IC50 in assay [1] was above 10 µM. Also, in assay [2], the IC50 was at most 0.001 µM and the “ETA selectivity (ETB/ETA)” value is “++ (ETB IC50 value/ETA IC50 value of higher than 5000)”.
As to `Cc1cc2c(cc1C#Cc1ncccc1S(=O)(=O)Nc1noc(C)c1Cl)C(C)(C)OC2` [Example 7, N-(4-Chloro-5-methylisoxazol-3-yl)-2-((3,3,6-trimethyl-1,3-dihydroisobenzofuran-5-yl)ethynyl)pyridine-3-sulfonamide], the IC50 in assay [1] is 1 to 10 µM; in assay [2], at most 0.001 µM.
In turn, `COc1nc(C)cnc1NS(=O)(=O)c1cccnc1C#Cc1cc2c(cc1C)COC2(C)C` [Example 10, N-(3-Methoxy-5-methylpyrazin-2-yl)-2-((3,3,6-trimethyl-1,3-dihydroisobenzofuran-5-yl)ethynyl)pyridine-3-sulfonamide] yielded an IC50 in assay [1] above 10 µM. In assay [2], the IC50 is at most 0.001 µM and the “ETA selectivity (ETB/ETA)” value was “++ (ETB IC50 value/ETA IC50 value of higher than 5000)”.
With `Cc1cc2c(cc1C#Cc1ncccc1S(=O)(=O)Nc1noc(C)c1C)C(C)(C)OC2` [Example 1, N-(4,5-Dimethylisoxazol-3-yl)-2-((3,3,6-trimethyl-1,3-dihydroisobenzofuran-5-yl)ethynyl)pyridine-3-sulfonamide], in assay [3], the “Diastolic blood pressure delta AUC0-60 min” value was determined as 278 ± 539 mmHg*min and the “Systolic blood pressure delta AUC0-60 min” value is 83 ± 508 mmHg*min. In addition, the IC50 in assay [1] was above 10 µM. Moreover, in assay [2], the IC50 was at most 0.001 µM and the “ETA selectivity (ETB/ETA)” value is “++ (ETB IC50 value/ETA IC50 value of higher than 5000)”.
